Experimental data as given in ChEMBL document CHEMBL5120903, “Constituents of Croton megalocarpus with Potential Anti-HIV Activity” (J Nat Prod, 2022).

How the values were obtained:
[1] = test system: Human immunodeficiency virus 1; test: Anti-retroviral activity against HIV-1 IIIB infected in human MT4 cells assessed as inhibition of viral replication and measured after 5 days by MTT assay; type: functional, organism-based; details: Human immunodeficiency virus 1, IIIB, MT4, 120 h
[2] = Cytotoxicity against human MT4 cells and measured after 5 days by MTT assay; type: toxicity, cell-based
[3] = Cytotoxicity against human FM55M1 cells assessed as reduction in cell viability measured upto 50 uM incubated for 72 hrs by cell titre 96 reagent based plate reader analysis; type: toxicity; details: fm55m1, 72 h
[4] = target: Human immunodeficiency virus type 1 protease (Human immunodeficiency virus 1) (UniProt Q72874); test: Inhibition of HIV-1 protease at 10 ug/ml by fluorescence based plate reader assay relative to control; details: dose 10.0 µg/ml

inhibition [4] [%]	Compound	IC50 [1] [µM]	IC50 at 5 days [2] [µM]	Activity [3]
75	C=C1CC[C@]2(O)OC(=O)C(C)=C2[C@@H]2[C@@H]1[C@@]13O[C@@]1(C[C@@H](C)[C@H]3O)[C@H]1O[C@@]21C	0.0055	510	Non-Toxic
63	C=C1CC[C@@H]2OC(=O)C(C)=C2[C@@H]2[C@@H]1[C@@]13O[C@@]1([C@@H](Cl)[C@@H](C)[C@H]3OC(C)=O)[C@@H](O)[C@@]2(C)O	0.028	209	Non-Toxic
